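Briefly, cells in 96-well plates were exposed to five compound concentrations for 48 h, and endpoints were estimated by linear interpolation. GI50 = concentration required for 50% inhibition of growth. At the TGI there is no net growth.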
How the values were obtained:
Assay in all cases: NCI anticancer screen, dose series, 48 h
ACHN renal = test system: ACHN renal
HCC-2998 colon = test system: HCC-2998 colon
HS 578T breast = test system: HS 578T breast
IGROV1 ovarian = test system: IGROV1 ovarian
K-562 leukemia = test system: K-562 leukemia
M14 melanoma = test system: M14 melanoma
NCI-H226 lung = test system: NCI-H226 lung
NCI/ADR-RES ovarian = test system: NCI/ADR-RES ovarian
PC-3 prostate = test system: PC-3 prostate
RXF 393 renal = test system: RXF 393 renal
SF-539 CNS = test system: SF-539 CNS
SK-MEL-28 melanoma = test system: SK-MEL-28 melanoma

Compound | TGI (ACHN renal) | TGI (HCC-2998 colon) | TGI (HS 578T breast) | TGI (IGROV1 ovarian) | TGI (K-562 leukemia) | TGI (M14 melanoma) | TGI (NCI-H226 lung) | TGI (NCI/ADR-RES ovarian) | TGI (PC-3 prostate) | TGI (RXF 393 renal) | TGI (SF-539 CNS) | TGI (SK-MEL-28 melanoma) | GI50 (HCC-2998 colon) | GI50 (IGROV1 ovarian) | GI50 (M14 melanoma) | GI50 (NCI-H226 lung) | GI50 (NCI/ADR-RES ovarian) | GI50 (PC-3 prostate)
CCN(CC)CCN1CCN=c2c3cc(OC)ccc3n3cnc4ccc1c2c43 | 3.61 µM | 2.13 µM | 4.71 µM | 2.45 µM | 2.68 µM | 2.85 µM | 5.3 µM | 2.39 µM | 1.63 µM | 1.52 µM | 0.969 µM | 3.51 µM | – | – | – | – | – | –
CCOP(=O)(CCC(O)CNc1nc(N)nc(Cl)c1N=Nc1ccc(Cl)cc1)OCC (centres undefined) | 31.6 µM | 26.1 µM | 38.2 µM | 33 µM | > 100 µM | – | 64.5 µM | 46.9 µM | 29.7 µM | 21.1 µM | – | 25.9 µM | – | – | – | – | – | –
C=C(CO)[C@H]1CC/C(C)=C/CC/C(C)=C/C/C=C(\C)[C@H](O)C1 | 69.7 µM | 32.2 µM | 74.1 µM | 36.1 µM | > 100 µM | – | 90.9 µM | 90.3 µM | > 100 µM | 42.1 µM | 40.8 µM | 31.2 µM | – | – | – | – | – | –
COc1ccc(-c2cc(=O)c3c(O)c(OC)c(O)cc3o2)cc1O | > 100 µM | > 100 µM | 87.3 µM | 40.2 µM | > 52.7 µM | > 75 µM | > 90.8 µM | > 21.2 µM | > 88.1 µM | > 64.8 µM | 21.9 µM | > 100 µM | – | – | – | – | – | –
CCOC(=O)c1c(-c2ccc(Cl)cc2)c(C#N)c(=S)n(C2OC(CO)C(O)C(O)C2O)c1-c1ccccc1 (centres undefined) | > 100 µM | 81.9 µM | 58.6 µM | > 100 µM | 70.9 µM | 37.6 µM | – | > 100 µM | 50.4 µM | 47.1 µM | 35 µM | 38.7 µM | – | – | – | – | – | –
COC(=O)C(Cc1ccccc1)C(=O)NC(CNC(=O)OCc1ccccc1)C(=O)OCc1ccccc1 (centres undefined) | > 100 µM | > 95.4 µM | > 100 µM | > 100 µM | 45 µM | 30.4 µM | > 80.2 µM | > 100 µM | > 100 µM | 67.3 µM | > 100 µM | 44 µM | – | – | – | – | – | –
CC(C)[Si](OCC/C=C/C1CCC(=O)C1C(O)C1CCCCC1)(C(C)C)C(C)C (centres undefined) | 27.9 µM | 23.2 µM | 36.5 µM | 28.5 µM | 47 µM | 37.8 µM | 30 µM | 27.6 µM | 31.5 µM | 26.4 µM | 40.6 µM | 29 µM | – | – | – | – | – | –
O=c1[nH]c2nccn2c(Cl)c1Br | 70.1 µM | 36 µM | 66 µM | 45.4 µM | 39.1 µM | 34.5 µM | 89.4 µM | 73.2 µM | > 100 µM | 20.8 µM | > 100 µM | 36 µM | – | – | – | – | – | –
CNC(=O)C(C)NC(=O)C(Cc1ccccc1)NC(=O)OC(C)(C)C (centres undefined) | > 100 µM | > 100 µM | > 100 µM | > 100 µM | > 100 µM | > 100 µM | > 100 µM | > 100 µM | > 100 µM | > 100 µM | > 100 µM | > 100 µM | – | – | – | – | – | –
CCC1=NC(N/N=C/c2ccccc2O)=N/C1=C\c1ccccc1O | 29.5 µM | 36.4 µM | > 83.7 µM | 56.9 µM | > 100 µM | 51.9 µM | > 69 µM | 24 µM | > 100 µM | > 73.4 µM | – | > 100 µM | – | – | – | – | – | –
c1ccc2c(OCC3CO3)ccc(OCC3CO3)c2c1 (centres undefined) | 6.48 µM | 24.1 µM | 9.73 µM | 16 µM | 16.8 µM | 13.3 µM | 27.7 µM | 31.1 µM | 17.1 µM | 7.71 µM | 4.8 µM | 21.5 µM | – | – | – | – | – | –
CO[C@H]1C[C@@H]2CC[C@@H](C)[C@@](O)(O2)C(=O)C(=O)N2CCCC[C@H]2C(=O)O[C@H]([C@H](C)C[C@@H]2CC[C@@H](OC(=O)C(C)(CO)CO)[C@H](OC)C2)CC(=O)[C@H](C)/C=C(\C)[C@@H](O)[C@@H](OC)C(=O)[C@H](C)C[C@H](C)/C=C/C=C/C=C/1C | > 100 µM | > 46.9 µM | 17.2 µM | 15.3 µM | > 100 µM | > 100 µM | 22.1 µM | 72.5 µM | > 81.6 µM | 21.9 µM | 5.23 µM | > 100 µM | 0.00154 µM | 0.000946 µM | 16 µM | 0.0187 µM | 1.01 µM | < 0.0487 µM
COc1ccc2c(c1)-c1c(c3ccccc3n1CCN1CCCCC1)CC2 | > 100 µM | 19.2 µM | > 65.7 µM | 41.9 µM | 18 µM | > 55.8 µM | 37.5 µM | 34.4 µM | > 87.7 µM | > 100 µM | 39.3 µM | 99.2 µM | – | – | – | – | – | –
[N-]=[N+]=Nc1cc(=O)n(-c2ccccc2)c(=O)n1-c1ccccc1 | > 100 µM | – | > 100 µM | > 100 µM | > 100 µM | > 100 µM | > 100 µM | > 100 µM | > 100 µM | > 100 µM | > 100 µM | > 100 µM | – | – | – | – | – | –
CCCOc1ccc(/C=C/C2=[N+](CCO)CCO2)cc1 | > 100 µM | > 100 µM | > 100 µM | > 100 µM | > 100 µM | > 100 µM | > 100 µM | > 100 µM | > 100 µM | > 100 µM | > 100 µM | > 100 µM | – | – | – | – | – | –
COc1c(C(CC(C)C)OC(C)=O)ccc2c1C(=O)OCc1cc(C)cc(O)c1O2 (centres undefined) | 23.2 µM | 25.4 µM | 50.4 µM | 30.4 µM | > 100 µM | 31.3 µM | 30 µM | 32.2 µM | 21.6 µM | 34 µM | 32.9 µM | 29.4 µM | – | – | – | – | – | –
Cc1nc2c(n1CCCl)C(=O)c1ccccc1C2=O | > 100 µM | 67.5 µM | > 100 µM | 41.6 µM | > 100 µM | 17.1 µM | 50.1 µM | 63.6 µM | 46.1 µM | 46.2 µM | > 100 µM | > 100 µM | – | – | – | – | – | –

— PubChem BioAssay (NCI)
